Test results taken from patent US6417384B1, “Radioiodinated phospholipid ether analogs and methods of using the same” (The Regents of the University of Michigan, priority 1999, dated 2002).
Blank lines part the entries; values can stand above or below the molecule they belong to.

Columns and labels:
[1] = tested on: rats bearing Dunning (MATLyLu) prostate tumors; test: Biodistribution studies with Dunning prostate tumor; assay type: in vivo, rat; conditions: for mean % administered dose per gram, Adrenal / mean % administered dose per gram, Blood / mean % administered dose per gram, Kidney / mean % administered dose per gram, Liver / mean % administered dose per gram, Lung / mean % administered dose per gram, Plasma / mean % administered dose per gram, Tumor: i.v., Dunning MAT-LyLu prostate tumor-bearing rats, mean ± SEM
Procedure: The three radiolabelled compounds illustrated in FIGS. 7A-7C, including the improved C-18 analogs 18-(p-iodophenyl)octadecyl phosphocholine (Compound XVI—FIG. 7B) and 1-O-[18-(p-iodophenyl)octadecyl]-1,3-propanediol-3-phosphocholine (Compound XIV—FIG. 7C) described in Examples 2 and 3, respectively, were prepared and administered to two sets of male Copenhagen rats (Harlan Sprague-Dawley, Indianapolis, Ind.). One group of normal animals was used as a control, and another group was inoculated with Dunning prostate tumor cells (1×10^6 MAT-LyLu cells) in 0.2 ml saline in the right hindlimb. The MAT-LyLu subline of the Dunning (R-3327) adenocarcinoma prostate tumor was provided by Dr. Ken Pienta of the Department of Urology at the University of Michigan, and is an accepted cell line representative of effect in humans. See, e.g., Pienta et al., “Inhibition of Spontaneous Metastasis in a Rat Prostrate Cancer Model by Oral Administration of Modified Citrus Pectin, J. Natl. Cancer Inst. 87:348-53 (1995).
The animals were maintained with free access to food and water until day 8-10. The radioiodinated phospholipid ether analog formulated in 2% Tween 20—sterile water (5-10 μCi, 0.3-0.4 ml, described above in Example 6) was administered intravenously into the tail vein of the tumor-bearing animals under metofane anesthesia. The animals were euthanized at selected time points after injection (n=3 per time point) and samples of blood, plasma and a variety of tissues including tumor and prostate are collected and analyzed for radioiodine content. Biodistribution values are calculated as the mean of the individual % administered dose per gram of tissue and % dose per organ values.

[2] = tested on: rats bearing Walker-256 tumor; test: Biodistribution studies with Walker-256 carcinosarcoma; assay type: in vivo, rat
Procedure: The three radiolabelled compounds illustrated in FIG. 5, including the improved C-18 analog 18-(p-iodophenyl)octadecyl phosphocholine (Compound XVI) described in Example 2, were prepared and administered to two sets of female Sprague Dawley rats (Charles River, Portage, Mich.). One normal set was used as a control, and one set was inoculated with Walker-256 carcinosarcoma cells (5×10^6 cells) in 0.2 ml saline in the right hindlimb. The Walker carcinoma cell line was provided by Dr. James Varani of the Department of Pathology at the University of Michigan, and is an accepted cell line representative of effect in humans. See, e.g. Tayck et al., “Influence of the Walker 256 Carcinosarcoma on Muscle, Tumor, and Whole-Body Protein Synthesis and Growth Rate in the Cancer-Bearing Rat, Cancer Res. 46:5649-54 (1986).
The animals were used 6-8 days later when the tumor weight averaged 10 g. The radiolabelled compounds were dissolved in absolute ethanol (50-500 μl) and Tween-20 (0.1 ml/mg of compound) was added to the solution. Ethanol was removed by evaporation under a stream of nitrogen. Physiological saline or sterile water was added, to give a 2-3% Tween-20 solution which was subsequently mixed by vortex. The solubilized radiolabelled compounds (5-10 μCi, 0.3 ml) were administered intravenously via the tail vein to tumor bearing rats, and the animals were sacrificed by exsanguination while under ether anesthesia at the various time points. Blood samples were collected through cardiac puncture and selected tissues (liver, kidney, etc.) were removed, trimmed, blotted to remove excess blood and weighed. Large organs were thoroughly minced with scissors to obtain random representative tissue samples.
For the biodistribution experiments with 12-(p-iodophenyl)dodecyl phosphocholine, weighed tissue samples were counted with a well scintillation counter (85% counting efficiency). The concentration of radioactivity in each tissue was expressed as a percentage of administered dose per gram of tissue.
Tissue distribution was assessed at various times following administration of the radioiodinated chain length isomers. The results are expressed as the mean % administered dose per gram±SEM (% Dose/g±SEM).

[3] = female, Sprague Dawley, rat, in vivo, iv, 24 h
[4] = female, Sprague Dawley, rat, in vivo, iv, 48 h

- mean % administered dose per gram, Adrenal ([1]; 24 hr): 1.37 ± 0.03 % Dose/g
- mean % administered dose per gram, Adrenal ([1]; 48 hr): 1.04 ± 0.07 % Dose/g
- mean % administered dose per gram, Blood ([1]; 24 hr): 0.41 ± 0.01 % Dose/g
- mean % administered dose per gram, Blood ([1]; 48 hr): 0.29 ± 0.01 % Dose/g
- mean % administered dose per gram, Kidney ([1]; 24 hr): 0.73 ± 0.02 % Dose/g
- mean % administered dose per gram, Kidney ([1]; 48 hr): 0.65 ± 0.01 % Dose/g
- mean % administered dose per gram, Liver ([1]; 24 hr): 0.57 ± 0.02 % Dose/g
- mean % administered dose per gram, Liver ([1]; 48 hr): 0.36 ± 0.01 % Dose/g
- mean % administered dose per gram, Lung ([1]; 24 hr): 0.89 ± 0.07 % Dose/g
- mean % administered dose per gram, Lung ([1]; 48 hr): 0.78 ± 0.02 % Dose/g
- mean % administered dose per gram, Plasma ([1]; 24 hr): 0.58 ± 0.01 % Dose/g
- mean % administered dose per gram, Plasma ([1]; 48 hr): 0.42 ± 0.03 % Dose/g
- mean % administered dose per gram, Tumor ([1]; 24 hr): 0.43 ± 0.05 % Dose/g
- mean % administered dose per gram, Tumor ([1]; 48 hr): 0.39 ± 0.01 % Dose/g
SMILES: C[N+](C)(C)CCOP(=O)([O-])OCCCOCCCCCCCCCCCCCCCCCCc1ccc(I)cc1 [Compound XIV, 1-O-[18-(p-Iodophenyl)octadecyl]-1,3-propanediol-3-phosphocholine]

- mean % administered dose per gram, Adrenal ([1]; 24 hr): 0.88 ± 0.02 % Dose/g
- mean % administered dose per gram, Adrenal ([1]; 48 hr): 0.76 ± 0.03 % Dose/g
- mean % administered dose per gram, Blood ([1]; 24 hr): 0.88 ± 0.04 % Dose/g
- mean % administered dose per gram, Blood ([1]; 48 hr): 0.64 ± 0.05 % Dose/g
- mean % administered dose per gram, Kidney ([1]; 24 hr): 0.59 ± 0.02 % Dose/g
- mean % administered dose per gram, Kidney ([1]; 48 hr): 0.51 ± 0.03 % Dose/g
- mean % administered dose per gram, Liver ([1]; 24 hr): 0.57 ± 0.02 % Dose/g
- mean % administered dose per gram, Liver ([1]; 48 hr): 0.40 ± 0.03 % Dose/g
- mean % administered dose per gram, Lung ([1]; 24 hr): 0.84 ± 0.01 % Dose/g
- mean % administered dose per gram, Lung ([1]; 48 hr): 0.69 ± 0.05 % Dose/g
- mean % administered dose per gram, Plasma ([1]; 24 hr): 1.43 ± 0.06 % Dose/g
- mean % administered dose per gram, Plasma ([1]; 48 hr): 0.99 ± 0.11 % Dose/g
- mean % administered dose per gram, Tumor ([1]; 24 hr): 0.75 ± 0.04 % Dose/g
- mean % administered dose per gram, Tumor ([1]; 48 hr): 0.81 ± 0.04 % Dose/g
- tumor levels relative to the shorter chain analog ([1]; versus C-12 analog, Dunning prostate tumor model): more than twice as high
SMILES: C[N+](C)(C)CCOP(=O)([O-])OCCCCCCCCCCCCCCCCCCc1ccc(I)cc1 [Compound XVI, 18-(p-iodophenyl)octadecyl phosphocholine]
- mean % administered dose per gram, Adrenal [2, 3]: 0.85 ± 0.04 % Dose/g
- mean % administered dose per gram, Blood [2, 3]: 0.96 ± 0.00 % Dose/g
- mean % administered dose per gram, Duodenum [2, 3]: 0.69 ± 0.05 % Dose/g
- mean % administered dose per gram, Kidney [2, 3]: 0.65 ± 0.00 % Dose/g
- mean % administered dose per gram, Liver [2, 3]: 0.55 ± 0.04 % Dose/g
- mean % administered dose per gram, Lung [2, 3]: 0.88 ± 0.06 % Dose/g
- mean % administered dose per gram, Plasma [2, 3]: 1.47 ± 0.03 % Dose/g
- mean % administered dose per gram, Tumor [2, 3]: 0.98 ± 0.07 % Dose/g
- mean % administered dose per gram, Adrenal [2, 4]: 0.92 ± 0.06 % Dose/g
- mean % administered dose per gram, Blood [2, 4]: 0.64 ± 0.07 % Dose/g
- mean % administered dose per gram, Duodenum [2, 4]: 0.68 ± 0.04 % Dose/g
- mean % administered dose per gram, Kidney [2, 4]: 0.59 ± 0.04 % Dose/g
- mean % administered dose per gram, Liver [2, 4]: 0.59 ± 0.05 % Dose/g
- mean % administered dose per gram, Lung [2, 4]: 0.76 ± 0.07 % Dose/g
- mean % administered dose per gram, Plasma [2, 4]: 0.95 ± 0.11 % Dose/g
- mean % administered dose per gram, Tumor [2, 4]: 1.14 ± 0.01 % Dose/g
- blood levels ([2]; female, Sprague Dawley, rat, in vivo, iv, 120 h): 0.60±0.01 % Dose/g
- clearance from non-target tissues ([2]; rat, in vivo): much more rapid than from tumor
- level in the tumor over a longer time period ([2]; rat, in vivo): increased significantly
- retention in the circulation ([2]; rat, in vivo): retained in the circulation to a much greater extent than the other chain length isomers surveyed

SMILES: C[N+](C)(C)CCOP(=O)([O-])OCCCCCCCCCCCCCCCc1ccc(I)cc1 [C-15 Analog, 15-(p-iodophenyl)pentadecyl phosphocholine]
- mean % administered dose per gram, Adrenal ([2]; Adrenal, 24 hr, i.v., Walker-256 tumor-bearing rats, mean ± SEM): 0.73 ± 0.08 % Dose/g
- mean % administered dose per gram, Adrenal ([2]; Adrenal, 48 hr, i.v., Walker-256 tumor-bearing rats, mean ± SEM): 0.49 ± 0.05 % Dose/g
- mean % administered dose per gram, Blood ([2]; Blood, 24 hr, i.v., Walker-256 tumor-bearing rats, mean ± SEM): 0.16 ± 0.01 % Dose/g
- mean % administered dose per gram, Blood ([2]; Blood, 48 hr, i.v., Walker-256 tumor-bearing rats, mean ± SEM): 0.14 ± 0.01 % Dose/g
- blood levels ([2]; Blood, 120 hours, i.v., Walker-256 tumor-bearing rats, mean ± SEM): 0.07±0.01 % Dose/g
- mean % administered dose per gram, Duodenum ([2]; Duodenum, 24 hr, i.v., Walker-256 tumor-bearing rats, mean ± SEM): 1.13 ± 0.13 % Dose/g
- mean % administered dose per gram, Duodenum ([2]; Duodenum, 48 hr, i.v., Walker-256 tumor-bearing rats, mean ± SEM): 1.38 ± 0.24 % Dose/g
- mean % administered dose per gram, Kidney ([2]; Kidney, 24 hr, i.v., Walker-256 tumor-bearing rats, mean ± SEM): 1.14 ± 0.11 % Dose/g
- mean % administered dose per gram, Kidney ([2]; Kidney, 48 hr, i.v., Walker-256 tumor-bearing rats, mean ± SEM): 0.91 ± 0.04 % Dose/g
- mean % administered dose per gram, Liver ([2]; Liver, 24 hr, i.v., Walker-256 tumor-bearing rats, mean ± SEM): 1.29 ± 0.10 % Dose/g
- mean % administered dose per gram, Liver ([2]; Liver, 48 hr, i.v., Walker-256 tumor-bearing rats, mean ± SEM): 0.83 ± 0.04 % Dose/g
- mean % administered dose per gram, Lung ([2]; Lung, 24 hr, i.v., Walker-256 tumor-bearing rats, mean ± SEM): 0.97 ± 0.03 % Dose/g
- mean % administered dose per gram, Lung ([2]; Lung, 48 hr, i.v., Walker-256 tumor-bearing rats, mean ± SEM): 0.81 ± 0.04 % Dose/g
- mean % administered dose per gram, Plasma ([2]; Plasma, 24 hr, i.v., Walker-256 tumor-bearing rats, mean ± SEM): 0.16 ± 0.01 % Dose/g
- mean % administered dose per gram, Plasma ([2]; Plasma, 48 hr, i.v., Walker-256 tumor-bearing rats, mean ± SEM): 0.15 ± 0.03 % Dose/g
- mean % administered dose per gram, Tumor ([2]; Tumor, 24 hr, i.v., Walker-256 tumor-bearing rats, mean ± SEM): 1.47 ± 0.10 % Dose/g
- mean % administered dose per gram, Tumor ([2]; Tumor, 48 hr, i.v., Walker-256 tumor-bearing rats, mean ± SEM): 1.65 ± 0.23 % Dose/g
